Molecular target: T1, trypsin (Bos taurus, UniProt P00760)
T1 construct: gene PRSS1
T1 sequence (P00760 24-246): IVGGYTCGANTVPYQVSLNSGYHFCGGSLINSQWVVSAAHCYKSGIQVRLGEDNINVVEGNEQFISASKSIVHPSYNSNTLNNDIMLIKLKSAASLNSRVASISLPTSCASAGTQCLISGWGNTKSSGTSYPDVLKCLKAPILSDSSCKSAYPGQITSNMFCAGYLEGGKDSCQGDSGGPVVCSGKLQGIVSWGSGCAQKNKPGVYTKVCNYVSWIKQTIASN
Test: EnzChek Protease Assay measuring trypsin activity (trypsin inhibition)
Format: biochemical
Conditions: for Trypsin activity (RFU): control (trypsin only) 1446 RFU; for Normalised activity: control (trypsin only) = 1.0
Text: Hair growth follows a cycle of activity: anagen (growth phase), catagen (transitional/regression phase), telogen (dormant) followed by renewal of anagen. The telogen phase lasts approximately 3 months. […] The major biochemical activity at this stage is one of proteolysis whereby the proteins anchoring the hair fibre to the structure of the follicle are degraded (Paus & Krejic-Papa J Dermatol Sci 1994 Vol. 7, pp. 202-209; Krejic-Papa et al J Invest Derm Vol. 106, p 557). These enzymes are of the serine protease family of proteases.
Trypsin is a serine protease.
The following experiment uses trypsin as a model for the serine proteases involved in the process of hair fall (exogen). Successful inhibition the activity of the serine proteases such as trypsin is thought to delay the onset of exogen and decrease the amount of hair fall.
The EnzChek Protease Assay (E6639, Molecular Probes) was used to measure trypsin activity.

SMILES: CC(C)(C)C(=O)C(Oc1ccc(Cl)cc1)n1ccnc1 (centres unmarked) [Climbazole]
- Trypsin activity (RFU) (Climbazole 0.0225%): 1656 RFU
- Normalised activity (Climbazole 0.0225%): 1.15
- Trypsin activity (RFU) (Climbazole 0.045%): 1553 RFU
- Normalised activity (Climbazole 0.045%): 1.07
- effect on trypsin activity (summary of the tables of Examples 1-6): no effect (or perhaps a positive effect)

From patent US8506942B2, “Hair care composition” (Conopco, Inc., priority 2007, dated 2013)
